Data reported in patent US11661397B2, “1,4-disubstituted imidazole derivative” (Sumitomo Pharma Co., Ltd., priority 2015, dated 2023).
pIC50: −log10 of the molar value.

How the values were obtained:
HCT-116 cells [1] = assay: Test for inhibiting sphere-forming ability of cancer cells in the presence of BSA (Test Example 2); assay type: cell-based; details: Homo sapiens, 96 h; HCT-116 spheres, 5% bovine serum albumin (BSA), 4 days, CellTiter-Glo; read-out: Sphere IC50 value (concentration for 50% inhibition of cell proliferation)
Experimental: (§1) HCT-116 cells were available from the American Type Culture Collection (ATCC). HCT-116 cells were cultured at 37° C. and 5% CO2 using the McCoy's 5a medium containing 10% fetal bovine serum (FBS) and 1% penicillin/streptomycin. […] The test compounds were added into each well to adjust the final concentration of DMSO to 0.1%, and the cells were cultured for 4 days.

HCT-116 cells [2] = assay: Inhibition of sphere-forming ability of cancer cells (Test Example 1); assay type: cell-based; details: Homo sapiens, 96 h; HCT-116 spheres, non-adherent, serum-free, 4 days, CellTiter-Glo; read-out: Sphere IC50 value (concentration for 50% inhibition of cell proliferation)
Experimental: as §1

In the case of `O=C(Nc1cn(Cc2ccc(C(F)(F)F)c(F)c2)cn1)c1cnc(CO)c(C(F)F)c1` [Example 74, 5-(difluoromethyl)-N-{1-[3-fluoro-4-(trifluoromethyl)benzyl]-1H-imidazol-4-yl}-6-(hydroxymethyl)nicotinamide], the pIC50 (HCT-116 cells [1]) was 6.17 and the pIC50 (HCT-116 cells [2]) was 6.42.

For `O=C(Nc1cn(Cc2cc(F)c(F)c(F)c2)cn1)c1ccc(CCO)nc1` [Example 13], the pIC50 (HCT-116 cells [1]) was 6.13 and the pIC50 (HCT-116 cells [2]) was 6.17.

With `C=Cc1cc(C(=O)Nc2cn(Cc3cccc(C(F)(F)F)c3)cn2)cnc1CO` [Example 43, 5-Ethenyl-6-(hydroxymethyl)-N-{1-[3-(trifluoromethyl)benzyl]-1H-imidazol-4-yl}nicotinamide] the pIC50 (HCT-116 cells [1]) was 5.19 and the pIC50 (HCT-116 cells [2]) was 5.25.

For `Cc1sc(C(=O)Nc2cn(Cc3cc(F)c(F)c(F)c3)cn2)nc1CO` [Example 47, 4-(Hydroxymethyl)-5-methyl-N-[1-(3,4,5-trifluorobenzyl)-1H-imidazol-4-yl]-1,3-thiazole-2-carboxamide], the pIC50 (HCT-116 cells [1]) was 5.26 and the pIC50 (HCT-116 cells [2]) was 6.17.

`Cc1ccc(Cn2cnc(NC(=O)c3cnc(CO)c(C(F)F)c3)c2)cc1C(F)(F)F` [Example 70, 5-(difluoromethyl)-6-(hydroxymethyl)-N-{1-[4-methyl-3-(trifluoromethyl)benzyl]-1H-imidazol-4-yl}nicotinamide] was tested, and the pIC50 (HCT-116 cells [1]) was 7.22 and the pIC50 (HCT-116 cells [2]) was greater than 8.00.

`O=C(Nc1cn(Cc2cc(Cl)cc(Cl)c2)cn1)c1cnc(CO)c(C(F)F)c1` [Example 75, N-[1-(3,5-dichlorobenzyl)-1H-imidazol-4-yl]-5-(difluoromethyl)-6-(hydroxymethyl)nicotinamide] was tested, and the pIC50 (HCT-116 cells [1]) was 7.30 and the pIC50 (HCT-116 cells [2]) was greater than 8.00.

Work on `O=C(Nc1cn(Cc2cccc(Cl)c2)cn1)c1cnc(CO)c(C(F)F)c1` [Example 55, N-[1-(3-chlorobenzyl)-1H-imidazol-4-yl]-5-(difluoromethyl)-6-(hydroxymethyl)nicotinamide] yielded a pIC50 (HCT-116 cells [1]) of 6.21 and a pIC50 (HCT-116 cells [2]) of 7.12.

With `COc1cc(Cn2cnc(NC(=O)c3cnc(CO)c(C(F)F)c3)c2)cc(C(F)(F)F)c1` [Example 65, 5-(difluoromethyl)-6-(hydroxymethyl)-N-{1-[3-methoxy-5-(trifluoromethyl)benzyl]-1H-imidazol-4-yl}nicotinamide] the pIC50 (HCT-116 cells [1]) was 6.18 and the pIC50 (HCT-116 cells [2]) was 6.20.

For `O=C(Nc1ccc2nc(CO)ccc2c1)c1cn(Cc2cc(F)c(F)c(F)c2)cn1` [Example 23, N-[2-(hydroxymethyl)quinolin-6-yl]-1-(3,4,5-trifluorobenzyl)-1H-imidazole-4-carboxamide], the pIC50 (HCT-116 cells [1]) was 7.08 and the pIC50 (HCT-116 cells [2]) was 7.10.

`O=C(Nc1cn(Cc2cc(F)c(F)c(F)c2)cn1)c1ccc(CO)nn1` [Example 85, 6-(Hydroxymethyl)-N-[1-(3,4,5-trifluorobenzyl)-1H-imidazol-4-yl]pyridazine-3-carboxamide] was tested, and the pIC50 (HCT-116 cells [1]) was 7.52 and the pIC50 (HCT-116 cells [2]) was 7.70.

Molecule `O=C(Nc1cn(Cc2ccc(F)c(Cl)c2)cn1)c1cnc(CO)c(C(F)F)c1` [Example 61, N-[1-(3-chloro-4-fluorobenzyl)-1H-imidazol-4-yl]-5-(difluoromethyl)-6-(hydroxymethyl)nicotinamide] has a pIC50 (HCT-116 cells [1]) of 7.52 and a pIC50 (HCT-116 cells [2]) greater than 8.00.

`O=C(Nc1cn(Cc2cccc(C(F)(F)F)c2)cn1)c1cnc(CO)s1` [Example 40, 2-(Hydroxymethyl)-N-{1-[3-(trifluoromethyl)benzyl]-1H-imidazol-4-yl}-1,3-thiazole-5-carboxamide] was tested, and the pIC50 (HCT-116 cells [1]) was 6.20 and the pIC50 (HCT-116 cells [2]) was 6.91.

Molecule `O=C(Nc1cn(Cc2cccc(C(F)(F)F)c2)cn1)c1coc(CO)n1` [Example 37] has a pIC50 (HCT-116 cells [1]) of 6.35 and a pIC50 (HCT-116 cells [2]) of 6.62.

`O=C(Nc1cn(Cc2ccc(F)c(C(F)(F)F)c2)cn1)c1cnc(CO)c(C(F)F)c1` [Example 57, 5-(difluoromethyl)-N-{1-[4-fluoro-3-(trifluoromethyl)benzyl]-1H-imidazol-4-yl}-6-(hydroxymethyl)nicotinamide] gave a pIC50 (HCT-116 cells [1]) of 7.30 and a pIC50 (HCT-116 cells [2]) greater than 8.00.

Molecule `O=C(COc1ccc(CO)nc1)Nc1cn(Cc2cc(F)c(F)c(F)c2)cn1` [Example 2] has a pIC50 (HCT-116 cells [1]) of 6.22 and a pIC50 (HCT-116 cells [2]) of 6.20.

Molecule `O=C(Nc1cn(Cc2cc(F)cc(Br)c2)cn1)c1cnc(CO)c(C(F)F)c1` [Example 76, N-[1-(3-bromo-5-fluorobenzyl)-1H-imidazol-4-yl]-5-(difluoromethyl)-6-(hydroxymethyl)nicotinamide] has a pIC50 (HCT-116 cells [1]) of 7.22 and a pIC50 (HCT-116 cells [2]) of 7.30.

In the case of `CCOCc1ccc(C(=O)Nc2cn(Cc3cc(F)c(F)c(F)c3)cn2)cn1` [Example 16], the pIC50 (HCT-116 cells [1]) was 5.84 and the pIC50 (HCT-116 cells [2]) was 6.05.

`O=C(Nc1cn(Cc2cccc(C(F)(F)F)c2)cn1)c1cnc(CO)cn1` [Example 20] showed a pIC50 (HCT-116 cells [1]) of 6.50 and a pIC50 (HCT-116 cells [2]) of 7.28.

Molecule `CC(O)c1ccc(C(=O)Nc2cn(Cc3cccc(C(F)(F)F)c3)cn2)cn1` (stereo not drawn) [Example 6, 6-(1-Hydroxyethyl)-N-{1-[3-(trifluoromethyl)benzyl]-1H-imidazol-4-yl}nicotinamide] has a pIC50 (HCT-116 cells [1]) of 5.16 and a pIC50 (HCT-116 cells [2]) of 5.44.

`O=C(Nc1cn(Cc2ccc(F)c(F)c2)cn1)c1cnc(CO)c(C(F)F)c1` [Example 54, N-[1-(3,4-difluorobenzyl)-1H-imidazol-4-yl]-5-(difluoromethyl)-6-(hydroxymethyl)nicotinamide] was tested, and the pIC50 (HCT-116 cells [1]) was 6.22 and the pIC50 (HCT-116 cells [2]) was 6.83.

In the case of `O=C(/C=C/c1ccc(CO)nc1)Nc1cn(Cc2cccc(C(F)(F)F)c2)cn1` [Example 51], the pIC50 (HCT-116 cells [1]) was 6.20 and the pIC50 (HCT-116 cells [2]) was 7.15.

With `O=C(Nc1cn(Cc2cccc(C(F)(F)F)c2)cn1)c1cnc(CO)c(C(F)(F)F)c1` [Example 19, 6-(hydroxymethyl)-5-(trifluoromethyl)-N-{1-[3-(trifluoromethyl)benzyl]-1H-imidazol-4-yl}nicotinamide] the pIC50 (HCT-116 cells [1]) was 6.39 and the pIC50 (HCT-116 cells [2]) was 7.15.

Molecule `O=C(Nc1cn(Cc2ccc(F)c(Br)c2)cn1)c1cnc(CO)c(C(F)F)c1` [Example 62, N-[1-(3-bromo-4-fluorobenzyl)-1H-imidazol-4-yl]-5-(difluoromethyl)-6-(hydroxymethyl)nicotinamide] has a pIC50 (HCT-116 cells [1]) of 7.30 and a pIC50 (HCT-116 cells [2]) greater than 8.00.

`CC(=O)NCc1ccc(C(=O)Nc2cn(Cc3cccc(C(F)(F)F)c3)cn2)cn1` [Example 25, 6-[(Acetylamino)methyl]-N-{1-[3-(trifluoromethyl)benzyl]-1H-imidazol-4-yl}nicotinamide] gave a pIC50 (HCT-116 cells [1]) of 5.30 and a pIC50 (HCT-116 cells [2]) of 5.35.

`O=C(Nc1cn(Cc2cccc(Br)c2)cn1)c1cnc(CO)c(C(F)F)c1` [Example 58, N-[1-(3-bromobenzyl)-1H-imidazol-4-yl]-5-(difluoromethyl)-6-(hydroxymethyl)nicotinamide] gave a pIC50 (HCT-116 cells [1]) of 7.10 and a pIC50 (HCT-116 cells [2]) of 7.15.

For `O=C(Nc1cn(Cc2cc(F)c(F)c(F)c2)cn1)c1cnc(CO)c(Br)c1` [Example 38], the pIC50 (HCT-116 cells [1]) was 7.09 and the pIC50 (HCT-116 cells [2]) was 7.21.

`COc1cc(C(=O)Nc2cn(Cc3cccc(C(F)(F)F)c3)cn2)cnc1CO` [Example 33] was tested, and the pIC50 (HCT-116 cells [2]) was 5.01.

With `O=C(Nc1ccc(CO)nc1)c1cn(Cc2cc(F)c(F)c(F)c2)cn1` [Example 22, N-[6-(Hydroxymethyl)pyridin-3-yl]-1-(3,4,5-trifluorobenzyl)-1H-imidazole-4-carboxamide] the pIC50 (HCT-116 cells [1]) was greater than 8.00 and the pIC50 (HCT-116 cells [2]) was greater than 8.00.

Work on `O=C(Nc1cn(Cc2cc(F)cc(Cl)c2)cn1)c1cnc(CO)c(C(F)F)c1` [Example 78, N-[1-(3-chloro-5-fluorobenzyl)-1H-imidazol-4-yl]-5-(difluoromethyl)-6-(hydroxymethyl)nicotinamide] yielded a pIC50 (HCT-116 cells [1]) of 7.22 and a pIC50 (HCT-116 cells [2]) of 7.30.

Work on `Cc1cccc(Cn2cnc(NC(=O)c3cnc(CO)c(C(F)F)c3)c2)c1` [Example 63, 5-(difluoromethyl)-6-(hydroxymethyl)-N-[1-(3-methylbenzyl)-1H-imidazol-4-yl]nicotinamide] yielded a pIC50 (HCT-116 cells [1]) of 6.22 and a pIC50 (HCT-116 cells [2]) of 6.16.

With `O=C(Nc1cn(Cc2cccc(C(F)(F)F)c2)cn1)c1ccc(CO)cn1` [Example 1, 5-(Hydroxymethyl)-N-{1-[3-(trifluoromethyl)benzyl]-1H-imidazol-4-yl}picolinamide] the pIC50 (HCT-116 cells [1]) was 6.46 and the pIC50 (HCT-116 cells [2]) was 7.52.

Work on `O=C(Nc1cn(Cc2ccc(Br)c(F)c2)cn1)c1cnc(CO)c(C(F)F)c1` [Example 67, N-[1-(4-bromo-3-fluorobenzyl)-1H-imidazol-4-yl]-5-(difluoromethyl)-6-(hydroxymethyl)nicotinamide] yielded a pIC50 (HCT-116 cells [1]) of 7.15 and a pIC50 (HCT-116 cells [2]) of 7.40.

With `CC(C)(O)c1ccc(C(=O)Nc2cn(Cc3cccc(C(F)(F)F)c3)cn2)cn1` [Example 5, 6-(2-Hydroxypropan-2-yl)-N-{1-[3-(trifluoromethyl)benzyl]-1H-imidazol-4-yl}nicotinamide] the pIC50 (HCT-116 cells [2]) was 5.08.

With `[2H]C([2H])(O)c1ccc(C(=O)Nc2cn(Cc3cccc(C(F)(F)F)c3)cn2)cn1` [Example 4, 6-[Hydroxy (^2H2)methyl]-N-{1-[3-(trifluoromethyl)benzyl]-1H-imidazol-4-yl}nicotinamide] the pIC50 (HCT-116 cells [1]) was 7.21 and the pIC50 (HCT-116 cells [2]) was greater than 8.00.

Work on `O=C(Nc1cn(Cc2cccc(C(F)(F)F)c2)cn1)c1cnc(C(O)CO)c(Cl)c1` (stereo not drawn) [Example 28] yielded a pIC50 (HCT-116 cells [1]) of 5.34 and a pIC50 (HCT-116 cells [2]) of 6.07.

`O=C(Nc1cn(Cc2ccc(Cl)c(Cl)c2)cn1)c1cnc(CO)c(C(F)F)c1` [Example 71, N-[1-(3,4-dichlorobenzyl)-1H-imidazol-4-yl]-5-(difluoromethyl)-6-(hydroxymethyl)nicotinamide] showed a pIC50 (HCT-116 cells [1]) of 7.22 and a pIC50 (HCT-116 cells [2]) greater than 8.00.

`O=C(Nc1cn(Cc2cccc(C(F)(F)F)c2)cn1)c1ccc(/C=C/CO)nc1` [Example 14] showed a pIC50 (HCT-116 cells [2]) of 5.22.

Molecule `O=C(Nc1cn(Cc2cccc(Cl)c2)cn1)c1ccc(CO)nc1` [Example 11] has a pIC50 (HCT-116 cells [2]) of 7.25.

Work on `Cc1nc(CO)ccc1C(=O)Nc1cn(Cc2cccc(C(F)(F)F)c2)cn1` [Example 34] yielded a pIC50 (HCT-116 cells [2]) of 5.13.

Molecule `COCc1ccc(C(=O)Nc2cn(Cc3cccc(C(F)(F)F)c3)cn2)cn1` [Example 9] has a pIC50 (HCT-116 cells [2]) of 5.30.

`CNCc1ccc(C(=O)Nc2cn(Cc3cccc(C(F)(F)F)c3)cn2)cn1` [Example 26, 6-[(Methylamino)methyl]-N-{1-[3-(trifluoromethyl)benzyl]-1H-imidazol-4-yl}nicotinamide] gave a pIC50 (HCT-116 cells [2]) of 6.08.
